The source of these data is patent EP0700399B1, “36-DERIVATIVES OF RIFAMYCINS AND THEIR USE AS ANTIMICROBIAL AGENTS” (GRUPPO LEPETIT S.P.A., priority 1993, dated 1994).

For experiment [1], the system named is Streptococcus pyogenes. Put plainly: MIC by broth microdilution. The format is cell-based. The conditions noted are these: internal code L49; for MIC: Streptococcus pyogenes, read-out: MIC of the compounds. (Broth dilution looks for growth in wells or tubes with falling amounts of substance.)
Experiment [2] concerns Esch. coli K12 hyperpermeable. Put plainly: MIC by broth microdilution. The format is cell-based, Escherichia coli. The conditions noted are these: internal code G1640; hyperpermeable.
Experiment [3] deals with Staph. aureus rifa-r^(1). Put plainly: MIC by broth microdilution. The format is cell-based. Particulars: for MIC of the compounds: internal code L721, rifampicin resistant strain, moderately resistant; for MIC: Staphylococcus aureus, read-out: MIC of the compounds.
For experiment [4], the system named is Propionibact. acnes ATCC 6919. Put plainly: MIC by broth microdilution. The format is cell-based, Propionibacterium acnes. Particulars: internal code L1014, anaerobic, 48 hours; for MIC: Cutibacterium acnes, ATCC6919, read-out: MIC of the compounds.
Experiment [5] deals with Staphylococcus aureus. Put plainly: MIC by broth microdilution. The format is cell-based. Particulars: internal code L165; for MIC: Staphylococcus aureus, read-out: MIC of the compounds.
Experiment [6] concerns Proteus vulgaris ATCC 881. Put plainly: MIC by broth microdilution. The format is cell-based. The conditions noted are these: internal code L79; for MIC: Proteus vulgaris, ATCC881, read-out: MIC of the compounds.
For experiment [7], the system named is Escherichia coli. Put plainly: MIC by broth microdilution. Particulars: internal code L47; for MIC: Escherichia coli, read-out: MIC of the compounds. The format is cell-based.
Experiment [8] concerns Strept. pneumoniae. Put plainly: MIC by broth microdilution. Particulars: internal code L44; for MIC: Streptococcus pneumoniae, read-out: MIC of the compounds. Type of experiment: cell-based.
Experiment [9] concerns Staph. haemolyticus rifa-r^(2). Put plainly: MIC by broth microdilution. The format is cell-based. The conditions noted are these: for MIC of the compounds: internal code L602, rifampicin resistant strain, highly resistant; for MIC: Staphylococcus haemolyticus, read-out: MIC of the compounds.
Experiment [10] has as its system Haemoph. influenzae ATCC 19418. Put plainly: MIC by broth microdilution. Type of experiment: cell-based, Haemophilus influenzae. The conditions noted are these: internal code L970, 5% carbon dioxide, 48 hours; for MIC: Haemophilus influenzae, ATCC19418, read-out: MIC of the compounds.
Experiment [11] concerns Esch. coli K12 rifa-r^(1). Put plainly: MIC by broth microdilution. Type of experiment: cell-based, Escherichia coli. The conditions noted are these: internal code G1064; rifampicin resistant strain, moderately resistant.
Experiment [12] concerns Enterococc. faecalis ATCC 7080. Put plainly: MIC by broth microdilution. Particulars: internal code L149; for MIC: Enterococcus faecalis, ATCC7080, read-out: MIC of the compounds. Type of experiment: cell-based, Enterococcus faecalis.
For experiment [13], the system named is Bacteroides fragilis ATCC 23745. Put plainly: MIC by broth microdilution. The format is cell-based. Particulars: internal code L1010, anaerobic, 48 hours.
The subject of experiment [14] is Neisseria gonorrhoeae. Put plainly: MIC by broth microdilution. The conditions noted are these: internal code L997, 5% carbon dioxide, 48 hours; for MIC: Neisseria gonorrhoeae, read-out: MIC of the compounds. Type of experiment: cell-based.
Experiment [15] has as its system Pseudomonas aerug. ATCC10145. Put plainly: MIC by broth microdilution. The conditions noted are these: internal code L4; for MIC: Pseudomonas, ATCC10145, read-out: MIC of the compounds. Type of experiment: cell-based, Pseudomonas aeruginosa.
In experiment [16] the test system is Staph. epidermidis ATCC 12228. Put plainly: MIC by broth microdilution. The format is cell-based. Particulars: internal code L147; for MIC: Staphylococcus epidermidis, ATCC12228, read-out: MIC of the compounds.
The subject of experiment [17] is Staph. aureus rifa-r^(2). Put plainly: MIC by broth microdilution. The conditions noted are these: for MIC of the compounds: internal code L1282, rifampicin resistant strain, highly resistant; for MIC: Staphylococcus aureus, read-out: MIC of the compounds. The format is cell-based.
Experiment [18] concerns Bacteroides fragilis ATCC 25285. Put plainly: MIC by broth microdilution. The format is cell-based. The conditions noted are these: internal code L1011, anaerobic, 48 hours; for MIC: Bacteroides fragilis, ATCC25285, read-out: MIC of the compounds.
Experiment [19] relates to Staph. aureus Smith. Put plainly: MIC by broth microdilution. The format is cell-based. The conditions noted are these: internal code L819; for MIC: Staphylococcus aureus, read-out: MIC of the compounds.
Experiment [20] deals with Staphylococcus aureus Smith (Int. code L 819). Put plainly: Experimental septicemia in mice. The format is in vivo. Particulars: Staphylococcus aureus, 168 h, treated once immediately after infection, survival on the 7th day. The method, then: Some compounds of the invention were also tested in experimental septicemia in mice infected with Staphylococcus aureus Smith (Int. code L 819). For this purpose, groups of five mice were infected intraperitoneally with about 1 x 10^6 CFU of S. aureus Smith suspended in 0.5 ml of Difco bacteriological mucin. Untreated animals died within 48 hours. The other animals were treated once immediately after infection. On the 7th day the value of ED50 (expressed in mg/kg) was calculated by the method of Spearman-[…]., Statistical method in biological assay, page 254, C. Griffin Ltd., London, 1952), on the basis of the percentage of animals surviving at each dose.

Setting [21] is: sc, subcutaneous, read-out: ED50 SC route.

Read-outs that look alike come from different tables or passages of the source.

Turning to “36-Bromo-2'-(diethylamino)rifamycin P [Compound C9]”, the “MIC of the compounds” value in experiment [1] is 0.13 µg/mL; in experiment [2], 2 µg/mL; in [3] it was 8 µg/mL; in experiment [4] it was 0.06 µg/mL; in experiment [5], 0.06 µg/mL; in experiment [6], 32 µg/mL. Besides, the “MIC of the compounds” value was 16 µg/mL in experiment [7]; 0.13 µg/mL in experiment [8]; at least 128 µg/mL in experiment [9]; 0.25 µg/mL in experiment [10]; over 128 µg/mL in experiment [11]; 2 µg/mL in experiment [12]. The “MIC of the compounds” value in [13] is 0.13 µg/mL; in experiment [14], 0.5 µg/mL; in [15], 16 µg/mL; in experiment [16] it was 0.06 µg/mL; in experiment [17], over 128 µg/mL.
Consider “36-{[1-Ethyl-1,4-dihydro-1-methyl-4-oxo-1,8-naphthyridin-3-yl)carbonyloxy}-3-{[(4-methyl-1-piperazinyl)imino]methyl}rifamycin SV [Compound C27]”, for which the “MIC of the compounds” value in experiment [1] was found to be 0.008 µg/mL; in [3] it was 0.25 µg/mL; in [4], 0.03 µg/mL; in experiment [5], 0.03 µg/mL; in experiment [6], 16 µg/mL; in experiment [7] it was 32 µg/mL. In addition, the “MIC of the compounds” value in experiment [8] amounted to 0.008 µg/mL; in experiment [9], 16 µg/mL; in experiment [10], 0.25 µg/mL; in experiment [12] it was 2 µg/mL; in experiment [18], 0.13 µg/mL; in [19], 0.016 µg/mL. For the same compound, the “MIC of the compounds” value in [14] was 0.13 µg/mL; in experiment [15], 32 µg/mL; in [16], 0.016 µg/mL; in experiment [17], 16 µg/mL.
What is called ED50 is the dose at which the effect has come halfway, by size or by number of responders. As to `CCn1cc(C(=O)OCC(=O)O[C@H]2[C@H](C)[C@H](O)[C@H](C)[C@@H](O)[C@@H](C)/C=C/C=C(/C)C(=O)NC3=CC(=O)c4c(c(O)c(C)c5c4C(=O)[C@@](C)(O/C=C/[C@H](OC)[C@H]2C)O5)C3=O)c(=O)c2cc(F)c(N3CCN(C)CC3)cc21` [Compound C23, 36-{2-[1-Ethyl-6-fluoro-1,4-dihydro-7-(4-methyl-1-piperazinyl)-4-oxo-3-quinolinyl]carbonyloxy} rifamycin S], the MIC in [1] was determined as 0.004 µg/mL; in experiment [3] it was 0.06 µg/mL; in experiment [4] it was 2 µg/mL; in [5], 0.06 µg/mL; in [6], 128 µg/mL; in experiment [7] it was 128 µg/mL. The MIC came to 0.004 µg/mL in experiment [8]; 4 µg/mL in [9]; 2 µg/mL in experiment [10]; 0.13 µg/mL in [12]; 8 µg/mL in experiment [13] (Bacteroides fragilis, ATCC23745, read-out: MIC of the compounds); 8 µg/mL in [14]. The MIC is over 128 µg/mL in experiment [15], 0.06 µg/mL in experiment [16] and 1 µg/mL in experiment [17]. For the same compound, the ED50 in [20] (setting [21]) is 32.9 mg/kg.
For `CCn1cc(C(=O)OCC(=O)O[C@H]2[C@H](C)[C@H](O)[C@H](C)[C@@H](O)[C@@H](C)/C=C/C=C(/C)C(=O)Nc3c(C=NN4CCN(C)CC4)c(O)c4c5c(c(C)c(O)c4c3O)O[C@](C)(O/C=C/[C@H](OC)[C@H]2C)C5=O)c(=O)c2cc(F)c(N3CCN(C)CC3)cc21` [Compound C25, 36-{[1-Ethyl-6-fluoro-1,4-dihydro-7-(4-methyl-1-piperazinyl)-4-oxo-3-quinolinyl]carbonyloxy}-3-{[(4-methyl-1-piperazinyl)imino]methyl}rifamycin SV], the MIC in [1] is 0.03 µg/mL; in [3] it was 0.13 µg/mL; in experiment [5], 0.06 µg/mL; in experiment [6] it was 64 µg/mL; in experiment [7], 64 µg/mL; in [8], 0.016 µg/mL. The MIC in [9] worked out at 1 µg/mL; in [10], 1 µg/mL; in experiment [12] it was 2 µg/mL; in experiment [18], 2 µg/mL; in [19], 0.06 µg/mL; in experiment [14] it was 0.5 µg/mL. Moreover, the results for the MIC in [15], in experiment [16] and in [17] were 128 µg/mL, 0.13 µg/mL and 1 µg/mL, respectively. Moreover, the ED50 in experiment [20] (intravenous, read-out: ED50 IV route) stood at 2.9 mg/kg; in [20] (setting [21]), 4.7 mg/kg.
As for `CCn1cc(C(=O)OCC(=O)O[C@H]2[C@H](C)[C@H](O)[C@H](C)[C@@H](O)[C@@H](C)/C=C/C=C(/C)C(=O)Nc3c(C=NN4CCN(C)CC4)c(O)c4c5c(c(C)c(O)c4c3O)O[C@](C)(O/C=C/[C@H](OC)[C@H]2C)C5=O)c(=O)c2cnc(N3CCN(C)CC3)nc21` [Compound C28], the MIC is 0.016 µg/mL in experiment [1]; 0.13 µg/mL in experiment [3]; 0.06 µg/mL in experiment [4]; 0.06 µg/mL in [5]; 64 µg/mL in experiment [6]; 64 µg/mL in experiment [7]. In addition, the MIC in experiment [8] is 0.008 µg/mL; in [9] it was 4 µg/mL; in experiment [10], 2 µg/mL; in [12] it was 8 µg/mL; in experiment [18] it was 1 µg/mL; in experiment [19], 0.06 µg/mL. Also, the MIC was found to be 0.25 µg/mL in experiment [14], 128 µg/mL in experiment [15], 0.06 µg/mL in [16] and 2 µg/mL in experiment [17].
Turning to `CO[C@H]1/C=C/O[C@@]2(C)Oc3c(C)c(O)c4c(O)c(c(C=NN5CCN(C)CC5)c(O)c4c3C2=O)NC(=O)/C(C)=C\C=C\[C@H](C)[C@H](O)[C@@H](C)[C@@H](O)[C@@H](C)[C@H](OC(=O)COC(=O)c2cn(C3CC3)c3cc(-c4cc(C)nc(C)c4)c(F)cc3c2=O)[C@@H]1C` [Compound C29, 36-{[1-Cyclopropyl-6-fluoro-1,4-dihydre-7-(2,6-dimethyl-4-pyridinyl)-4-oxo-3-quinolinyl]-carbonyloxy}-3-{[(4-methyl-1-piperazinyl)imino]-methyl}rifamycin SV], the MIC turned out to be 0.016 µg/mL in experiment [1]; 0.5 µg/mL in [3]; 0.06 µg/mL in experiment [4]; 0.03 µg/mL in experiment [5]; 128 µg/mL in experiment [6]; 16 µg/mL in [7]. In addition, the MIC in experiment [8] was found to be 0.016 µg/mL; in experiment [9], 8 µg/mL; in [10] it was 0.25 µg/mL; in [12] it was 2 µg/mL; in experiment [18], 0.13 µg/mL; in [19], 0.03 µg/mL. Besides, the MIC is 0.25 µg/mL in experiment [14], over 128 µg/mL in [15], 0.03 µg/mL in experiment [16] and 2 µg/mL in experiment [17].
